Read-outs that look alike come from different tables or passages of the source.
Test system: HCV proteins in Rep5.1 cells (replicon cell line)
Experiment: Inhibitory activity of HCV: cell-based ELISA in replicon cell line Rep5.1 (decrease of HCV proteins)
Design: species or system hepatitis C virus
Details: Rep5.1 cells, 72 hours with drug
Method in brief: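 Rep5.1 replicon cells (5000/well, DMEM-10 with 500 μg/ml G418) were given serially diluted drug 4 h after seeding. After 72 h, cells were fixed in methanol/acetone and HCV proteins detected by cell-based ELISA using replicon-specific patient plasma antibodies. IC50 is the concentration giving 50% protein decrease versus the no-drug control.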

[1] = Hepatitis C virus, 72 h, concentration at which 50% of HCV proteins was decreased, Table 2, read-out: IC50
[2] = Hepatitis C virus, 72 h, decrease of HCV proteins measured by HCV antibody, Table 1, read-out: Level (IC50 values classified)
[3] = concentration at which 50% of HCV proteins was decreased, Table 2, read-out: IC50

| Compound | IC50 [1] | IC50 [2] | IC50 [3] |
| --- | --- | --- | --- |
| CC1=C(C(=O)OCCc2ccc(Cl)c(Cl)c2)C(CO)NC(=S)N1 (centres unmarked) [42″, 4-hydroxymethyl-6-methyl-2-thioxo-1,2,3,4-tetrahydro-pyrimidine-5-carboxylic acid 2-(3,4-dichloro-phenyl)-ethyl ester] | < 0.4 µM | < 1 µM | – |
| CC1=C(C(=O)OCCSc2nc3ccccc3s2)CNC(=S)N1 [Compound 224, 6-methyl-2-thioxo-1,2,3,4-tetrahydro-pyrimidine-5-carboxylic acid 2-(benzothiazol-2-ylsulfanyl)-ethyl ester] | 0.7 µM | < 1 µM | – |
| COc1ccccc1CCOC(=O)C1=C(C)NC(=S)NC1CF (centres unmarked) [42′, 4-fluoromethyl-6-methyl-2-thioxo-1,2,3,4-tetrahydro-pyrimidine-5-carboxylic acid 2-(2-methoxy-phenyl)-ethyl ester] | 4.1 µM | 1 to 10 µM | – |
| CC1=C(C(=O)OCc2nc3ccccc3n2C)CNC(=S)N1 [Compound 241, 6-methyl-2-thioxo-1,2,3,4-tetrahydro-pyrimidine-5-carboxylic acid 1-methyl-1H-benzoimidazol-2-ylmethyl ester] | 97 µM | > 20 µM | – |
| C=C(C)[C@@H]1CC=C(COC(=O)C2=C(C)NC(=S)NC2)CC1 [Compound 96, 6-methyl-2-thioxo-1,2,3,4-tetrahydro-pyrimidine-5-carboxylic acid (s)-(−)-4-isopropenyl-cyclohex-1-enylmethyl ester] | < 0.4 µM | < 1 µM | – |
| CC1=C(C(=O)OCc2ccc(F)cc2)CNC(=S)N1 [Compound 61, 6-methyl-2-thioxo-1,2,3,4-tetrahydro-pyrimidine-5-carboxylic acid 4-fluoro-benzyl ester] | 0.8 µM | < 1 µM | – |
| CC1=C(C(=O)OCCCCc2ccsc2)C(CF)NC(=S)N1 (centres unmarked) [61′, 4-fluoromethyl-6-methyl-2-thioxo-1,2,3,4-tetrahydro-pyrimidine-5-carboxylic acid 4-thiophen-3-yl-butyl ester] | 3 µM | 1 to 10 µM | – |
| CC1=C(C(=O)OCCc2ccsc2Br)C(CF)NC(=S)N1 (centres unmarked) [Compound 268, 4-fluoromethyl-6-methyl-2-thioxo-1,2,3,4-tetrahydro-pyrimidine-5-carboxylic acid 2-(2-bromo-thiophen-3-yl)-ethyl ester] | 1 µM | 1 to 10 µM | – |
| CC1=C(C(=O)OC(C)Cc2ccsc2Br)C(CO)NC(=S)N1 (centres unmarked) [7″, 4-hydroxymethyl-6-methyl-2-thioxo-1,2,3,4-tetrahydro-pyrimidine-5-carboxylic acid 2-(2-bromo-thiophen-3-yl)-1-methyl-ethyl ester] | 7 µM | 1 to 10 µM | – |
| CCCCCC(CC)OC(=O)C1=C(C)NC(=S)NC1 (centres unmarked) [Compound 47, 6-methyl-2-thioxo-1,2,3,4-tetrahydro-pyrimidine-5-carboxylic acid 1-ethyl-hexyl ester] | < 0.5 µM | < 1 µM | – |
| CC#CCCOC(=O)C1=C(C)NC(=S)NC1 [Compound 160, 6-methyl-2-thioxo-1,2,3,4-tetrahydro-pyrimidine-5-carboxylic acid pent-3-inyl ester] | – | – | 12 µM |
| COc1ccccc1COC(=O)C1=C(C)NC(=S)NC1 [Compound 65, 6-methyl-2-thioxo-1,2,3,4-tetrahydro-pyrimidine-5-carboxylic acid 2-methoxy-benzyl ester] | 1 µM | < 1 µM | – |
| CC1=C(C(=O)OCC#CCOCc2ccccc2)CNC(=S)N1 [Compound 214, 6-methyl-2-thioxo-1,2,3,4-tetrahydro-pyrimidine-5-carboxylic acid 4-benzyloxy-but-2-inyl ester] | – | – | < 0.4 µM |
| CC1=C(C(=O)OCCc2cc(C)cc(C)c2)C(CO)NC(=S)N1 (centres unmarked) [37″, 4-hydroxymethyl-6-methyl-2-thioxo-1,2,3,4-tetrahydro-pyrimidine-5-carboxylic acid 2-(3,5-dimethyl-phenyl)-ethyl ester] | 0.8 µM | < 1 µM | – |
| CSCCCOC(=O)C1=C(C)NC(=S)NC1CO (centres unmarked) [29″, 4-hydroxymethyl-6-methyl-2-thioxo-1,2,3,4-tetrahydro-pyrimidine-5-carboxylic acid 3-methylsulfanyl-propyl ester] | > 100 µM | > 20 µM | – |
| CC1=C(C(=O)OCCc2ccc(N(C)CC3CC3)c([N+](=O)[O-])c2)C(CO)NC(=S)N1 (centres unmarked) [98″, 4-Hydroxymethyl-6-methyl-2-thioxo-1,2,3,4-tetrahydro-pyrimidine-5-carboxylic acid 2-[4-(cyclopropylmethyl-methyl-amino)-3-nitro-phenyl]-ethyl ester] | 1 µM | < 1 µM | – |
| CC1=C(C(=O)OCCCc2ccncc2)CNC(=S)N1 [Compound 13, 6-methyl-2-thioxo-1,2,3,4-tetrahydro-pyrimidine-5-carboxylic acid 3-pyridin-4-yl-propyl ester] | > 100 µM | > 20 µM | – |

| Compound | IC50 [1] | IC50 [2] | IC50 [3] |
| --- | --- | --- | --- |
| COc1ccc(C2(COC(=O)C3=C(C)NC(=S)NC3CF)CC2)cc1 (centres unmarked) [66′, 4-fluoromethyl-6-methyl-2-thioxo-1,2,3,4-tetrahydro-pyrimidine-5-carboxylic acid 1-(4-methoxy-phenyl)-cyclopropylmethyl ester] | 8 µM | 1 to 10 µM | – |
| CC1=C(C(=O)OCc2ccc3ncsc3c2)CNC(=S)N1 [Compound 248, 6-methyl-2-thioxo-1,2,3,4-tetrahydro-pyrimidine-5-carboxylic acid benzothiazol-6-ylmethyl ester] | 5 µM | 1 to 10 µM | – |
| CCc1ccc(CCOC(=O)C2=C(C)NC(=S)NC2CF)o1 (centres unmarked) [23′, 4-fluoromethyl-6-methyl-2-thioxo-1,2,3,4-tetrahydro-pyrimidine-5-carboxylic acid 2-(5-ethyl-furan-2-yl)-ethyl ester] | 0.7 µM | < 1 µM | – |
| O=C(OCCCc1cccs1)C1=CNC(=S)NC1CF (centres unmarked) [16′, 4-fluoromethyl-2-thioxo-1,2,3,4-tetrahydro-pyrimidine-5-carboxylic acid 3-thiophen-2-yl-propyl ester] | 2 µM | 1 to 10 µM | – |
| CC1=C(C(=O)OCc2ccc(-c3cc(C(F)(F)F)n(C)n3)s2)CNC(=S)N1 [Compound 222, 6-methyl-2-thioxo-1,2,3,4-tetrahydro-pyrimidine-5-carboxylic acid 5-(1-methyl-5-trifluoromethyl-1H-pyrazol-3-yl)-thiophen-2-ylmethyl ester] | < 0.4 µM | < 1 µM | – |
| CC1=C(C(=O)OCC(F)(F)c2ccsc2)CNC(=S)N1 [71′, 6-methyl-2-thioxo-1,2,3,4-tetrahydro-pyrimidine-5-carboxylic acid 2,2-difluoro-2-thiophen-3-yl-ethyl ester] | 0.6 µM | < 1 µM | – |
| CC1=C(C(=O)SCc2ccco2)C(CF)NC(=S)N1 (centres unmarked) [39′, 4-fluoromethyl-6-methyl-2-thioxo-1,2,3,4-tetrahydro-pyrimidine-5-carbothioic acid S-furan-2-ylmethyl ester] | 2.6 µM | 1 to 10 µM | – |
| COC(=O)NCCOC(=O)OCC1NC(=S)NC(C)=C1C(=O)OCCc1cccc(Cl)c1 (centres unmarked) [80″, 4-(2-methoxycarbonylnamino-ethoxycarbonyloxymethyl)-6-methyl-2-thioxo-1,2,3,4-tetrahydro-pyrimidine-5-carboxylic acid 2-(3-chloro-phenyl)-ethyl ester] | – | – | 1.1 µM |
| CC1=C(C(=O)OCCc2ccc(F)c(F)c2)C(CF)NC(=S)N1 (centres unmarked) [90′, 4-fluoromethyl-6-methyl-2-thioxo-1,2,3,4-tetrahydro-pyrimidine-5-carboxylic acid 2-(3,4-difluoro-phenyl)-ethyl ester] | 0.8 µM | < 1 µM | – |
| CC1=C(C(=O)OCC=Cc2ccccc2)CNC(=S)N1 [Compound 54, 6-methyl-2-thioxo-1,2,3,4-tetrahydro-pyrimidine-5-carboxylic acid 3-phenyl-allyl ester] | < 0.5 µM | < 1 µM | – |
| CC1=C(C(=O)OCc2cccc(I)c2)CNC(=S)N1 [Compound 75, 6-methyl-2-thioxo-1,2,3,4-tetrahydro-pyrimidine-5-carboxylic acid 3-iodo-benzyl ester] | < 0.5 µM | < 1 µM | – |
| CC1=C(C(=O)OCCc2cccc(Cl)c2)CNC(=S)N1 [Compound 117, 6-methyl-2-thioxo-1,2,3,4-tetrahydro-pyrimidine-5-carboxylic acid 2-(3-chloro-phenyl)-ethyl ester] | 0.4 µM | < 1 µM | – |
| CC1=C(C(=O)OCCSc2nc3ccccc3o2)C(CF)NC(=S)N1 (centres unmarked) [46′, 4-fluoromethyl-6-methyl-2-thioxo-1,2,3,4-tetrahydro-pyrimidine-5-carboxylic acid 2-(benzoxazol-2-ylsulfanyl)-ethyl ester] | 6 µM | 1 to 10 µM | – |
| CC1=C(C(=O)O[C@H](C)c2ccccc2)CNC(=S)N1 [Compound 23, 6-methyl-2-thioxo-1,2,3,4-tetrahydro-pyrimidine-5-carboxylic acid (R)-1-phenyl-ethyl ester] | 5.4 µM | 1 to 10 µM | – |
| COC(=O)CCCCCCCCCOC(=O)C1=C(C)NC(=S)NC1 [Compound 198, 6-methyl-2-thioxo-1,2,3,4-tetrahydro-pyrimidine-5-carboxylic acid 9-methoxycarbonyl-nonyl ester] | 10 µM | 1 to 10 µM | – |
| COc1c(C)cc(COC(=O)C2=C(C)NC(=S)NC2)cc1C [Compound 180, 6-methyl-2-thioxo-1,2,3,4-tetrahydro-pyrimidine-5-carboxylic acid 4-methoxy-3,5-dimethyl-benzyl ester] | 0.8 µM | < 1 µM | – |
| CC1=C(C(=O)OCCc2c(F)cccc2F)C(CF)NC(=S)N1 (centres unmarked) [75′, 4-fluoromethyl-6-methyl-2-thioxo-1,2,3,4-tetrahydro-pyrimidine-5-carboxylic acid 2-(2,6-difluoro-phenyl)-ethyl ester] | 2.6 µM | 1 to 10 µM | – |

From US20060116390A1, “Hepatitis c virus inhibitors” (priority 2003, published 2006)
